One experiment deals with T1, GPR3 (Homo sapiens, UniProt P46089).
T1 construct: expressed in transfected cells; host or cells: CHO cells
Briefly: GPR3 antagonist functional cAMP assay (LANCE Ultra cAMP TR-FRET, CHO cells stably expressing GPR3). The class given is cell-based. Here is the method: (§1) Example 56. GPR6 and GPR3 Antagonist Functional cAMP Assay
(§2) CHO cells stably expressing GPR6 or GPR3 receptors were dissociated from cell culture flasks and incubated for 2 h at 37° C. in a 10 cm dish in a humidified incubator. Cells were dissociated, counted to have 1e6 cells/mL (4.5e6 cells needed/384-well plate), washed once in starved media, than in D-PBS and finally suspended in assay buffer (Krebs-Ringer Bicarbonate Buffer with 1800 mg/L glucose, without calcium chloride and sodium bicarbonate (Sigma) in the presence of 0.1% BSA and 150 μM of Ro 20-1724 Phosphodiesterase inhibitor).
(§3) Cells in suspension from above were plated in 384-well white Optiplate (PerkinElmer) at 10,000 cells/well/10 μl, briefly centrifuged prior direct addition of compounds ([…]) in 10 mM DMSO using a Tecan D300e Digital Dispenser, final DMSO in each well was normalized to 0.1%. Cells were incubated in the presence of compounds for 45 min at 37° C. in a humidified incubator.
(§4) To measure cAMP levels, LANCE® Ultra cAMP assay (Perkin Elmer), a homogeneous time-resolved fluorescence resonance energy transfer (TR-FRET) immunoassay was used following manufacturer's recommendations. Plates were shaken for 1 h at room temperature before reading on a Tecan InfiniteF200Pro multi-mode plate reader using standard FRET settings (Excitation 340 nm, Emission at 615 nm). FRET values were reported as readings obtained at 665 nm. Data were normalized to DMSO (0.1%) and reference compounds (100%) and fit to a 4-parameter logistical fit to generate antagonist IC50s.
On the technique in general: cAMP levels reflect the balance of adenylyl cyclase and phosphodiesterase activity.

The target of a further experiment is T2, GPR6 (Homo sapiens, UniProt P46095).
T2 construct: expressed in transfected cells; host or cells: CHO cells
Briefly: GPR6 antagonist functional cAMP assay (LANCE Ultra cAMP TR-FRET, CHO cells stably expressing GPR6). The class given is cell-based. Here is the method: as §1, §2, §3, §4

Setting [1] is: CHO cells stably expressing GPR3, cAMP assay.
The mark [2] stands for this setting: CHO cells stably expressing GPR6, cAMP assay.
Setting [3] is: CHO cells stably expressing GPR3, cAMP assay (Example 24).
The mark [4] stands for this setting: CHO cells stably expressing GPR6, cAMP assay (Example 24).
Where [5] appears, read: procedure as described in Example 24.

Some results are limits rather than exact numbers.

The results in this text go back to patent US20260042755A1, “GPR6 INVERSE AGONISTS” (MapLight Therapeutics, Inc., priority 2022, published 2026).

T1 sequence (P46089 whole entry, species assumed): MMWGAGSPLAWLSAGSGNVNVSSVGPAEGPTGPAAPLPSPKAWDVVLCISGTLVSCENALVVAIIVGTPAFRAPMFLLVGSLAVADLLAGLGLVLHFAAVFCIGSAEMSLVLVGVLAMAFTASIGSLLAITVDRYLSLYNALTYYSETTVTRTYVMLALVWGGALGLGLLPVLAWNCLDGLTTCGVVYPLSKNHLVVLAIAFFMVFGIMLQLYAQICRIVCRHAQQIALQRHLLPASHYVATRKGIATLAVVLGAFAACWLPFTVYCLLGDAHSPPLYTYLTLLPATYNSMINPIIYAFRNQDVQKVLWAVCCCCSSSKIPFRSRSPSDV
T2 sequence (P46095 whole entry): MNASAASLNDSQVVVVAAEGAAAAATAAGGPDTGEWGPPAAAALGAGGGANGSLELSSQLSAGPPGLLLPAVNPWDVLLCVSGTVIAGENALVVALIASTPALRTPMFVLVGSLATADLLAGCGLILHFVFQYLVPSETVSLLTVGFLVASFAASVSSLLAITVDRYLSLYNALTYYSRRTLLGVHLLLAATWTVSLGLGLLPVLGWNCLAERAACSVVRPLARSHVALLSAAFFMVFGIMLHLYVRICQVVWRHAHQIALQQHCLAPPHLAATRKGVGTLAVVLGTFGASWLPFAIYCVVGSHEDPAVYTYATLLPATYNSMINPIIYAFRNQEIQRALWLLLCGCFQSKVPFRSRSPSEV

On to `CC(=O)N1CCc2nc(N3CCN(C(CO)(CO)c4ccccc4F)CC3)c(-c3cnn(C)c3)nc2C1` [Compound 552, 1-(2-{4-[1-(o-fluorophenyl)-2-hydroxy-1-(hydroxymethyl)ethyl]-1-piperazinyl}-3-(1-methyl-4-pyrazolyl)-5,6,7,8-tetrahydro-1,4,6-triaza-6-naphthyl)-1-ethanone], for which the results for the IC50 against GPR3 (setting [1]) and at GPR6 (setting [2]) were at least 30000 nM and 1000 to 30000 nM, respectively. `Cn1cc(-c2nc3cncc(Cl)c3nc2N2CCC(Oc3ccc(F)cc3F)CC2)cn1` [Compound 411, 1-[8-chloro-3-(1-methyl-1H-pyrazol-4-yl)pyrido[3,4-b]pyrazin-2-yl]-4-(2,4-difluorophenoxy)piperidine]: the IC50 against GPR3 (setting [3]) and against GPR6 (setting [4]) was 1000 to 30000 nM in each case. `Fc1ccc(OC2CC=C(c3nc4cnccc4nc3-c3ncco3)CC2)c(F)c1` (stereo not drawn) [Compound 304, 2-{3-[4-(2,4-difluorophenoxy)cyclohex-1-en-1-yl]pyrido[3,4-b]pyrazin-2-yl}-1,3-oxazole]: the IC50 (usually the concentration that gives 50% inhibition) was at least 30000 nM on GPR3 (procedure of Example 24) and 1000 to 30000 nM against GPR6 (procedure of Example 24). On to `COCCN1CCc2nc(N3CCC(Oc4ccc(F)cc4F)CC3)c(-c3cn[nH]c3)nc2C1` [Compound 143, 4-(2,4-difluorophenoxy)-1-[6-(2-methoxyethyl)-3-(1H-pyrazol-4-yl)-5H,6H,7H,8H-pyrido[3,4-b]pyrazin-2-yl]piperidine], for which the values for the IC50 against GPR3 (setting [3]) and against GPR6 (setting [4]) were 1000 to 30000 nM and 100 to 1000 nM, respectively.

In the case of `CC(=O)N1CCc2nc(N3CCC(COc4cc(F)ccc4F)C3)c(-c3cnn(C)c3)nc2C1` (stereo not drawn) [Compound 364, 1-(2-{3-[(2,5-difluorophenoxy)methyl]pyrrolidin-1-yl}-3-(1-methyl-1H-pyrazol-4-yl)-5H,6H,7H,8H-pyrido[3,4-b]pyrazin-6-yl)ethan-1-one], the IC50 at GPR3 (procedure of Example 24) and against GPR6 (procedure of Example 24) was 1000 to 30000 nM in each case.

Consider `CC(C)(O)[C@](C)(O)c1cc2nc(N3CCN(Cc4ccccc4F)CC3)c(-c3cnn(C(F)F)c3)nc2cn1` (single isomer, unassigned) [Compound 669], for which the IC50 lay within 1000 to 30000 nM at GPR3 (procedure of Example 24) and 100 to 1000 nM against GPR6 (procedure of Example 24). The corresponding values for `FCn1cc(-c2nc3cc(Cl)ncc3nc2N2CCN(Cc3ccc(F)cc3F)CC2)cn1` [Compound 761, 7-chloro-3-{4-[(2,4-difluorophenyl)methyl]-1-piperazinyl}-2-[1-(fluoromethyl)-4-pyrazolyl]-1,4,6-triazanaphthalene] are 1000 to 30000 nM and 100 to 1000 nM. Regarding `CC(=O)N1CCc2nc(N3CCN(Cc4cc(Cl)c(F)cc4F)CC3)c(-c3cnn(C)c3)nc2C1` [Compound 360, 1-(2-{4-[(5-chloro-2,4-difluorophenyl)methyl]piperazin-1-yl}-3-(1-methyl-1H-pyrazol-4-yl)-5H,6H,7H,8H-pyrido[3,4-b]pyrazin-6-yl)ethan-1-one], the IC50 on GPR3 (procedure of Example 24) is 1000 to 30000 nM; against GPR6 (procedure of Example 24) it was 100 to 1000 nM. `Cn1cc(-c2nc3cnccc3nc2N2CCN(CC3CCCCO3)CC2)cn1` (stereo not drawn) [Compound 246, 1-[3-(1-methyl-1H-pyrazol-4-yl)pyrido[3,4-b]pyrazin-2-yl]-4-[(oxan-2-yl)methyl]piperazine]: the IC50 against GPR3 (setting [3]) and against GPR6 (setting [4]) was at least 30000 nM each time.

Take `CO[C@@H](CO)c1cc2nc(N3CCC(Oc4ccc(F)cc4F)CC3)c(-c3cnn(C)c3)nc2cn1` (single isomer, unassigned) [Compound 640]: the IC50 at GPR3 (procedure of Example 24) is 1000 to 30000 nM; on GPR6 (procedure of Example 24), 100 to 1000 nM. Consider `COCC(O)c1cc2nc(-c3cnn(C)c3)c(N3CCC(Oc4ccc(F)cc4F)CC3)nc2cn1` (stereo not drawn) [Compound 644, 1-{3-[4-(2,4-difluorophenoxy)-1-piperidyl]-2-(1-methyl-4-pyrazolyl)-1,4,6-triaza-7-naphthyl}-2-methoxy-1-ethanol], for which the IC50 was 100 to 1000 nM against GPR3 (procedure of Example 24) and under 100 nM on GPR6 (procedure of Example 24). On to `CC(C)(O)[C@H](O)c1cc2nc(N3CCN(Cc4ccc(F)cc4F)CC3)c(-c3cnn(CF)c3)nc2cn1` (single isomer, unassigned) [Compound 598], for which the IC50 was 1000 to 30000 nM against GPR3 (setting [1]) and 100 to 1000 nM at GPR6 (setting [2]).

As for `O=C(CO)N1CCc2nc(N3CCC(Oc4ccc(F)cc4F)CC3)c(-c3cn[nH]c3)nc2C1` [Compound 179, 1-{2-[4-(2,4-difluorophenoxy)piperidin-1-yl]-3-(1H-pyrazol-4-yl)-5H,6H,7H,8H-pyrido[3,4-b]pyrazin-6-yl}-2-hydroxyethan-1-one], the values for the IC50 on GPR3 (setting [3]) and against GPR6 (setting [4]) were 1000 to 30000 nM and under 100 nM, respectively. For `COC[C@](C)(O)c1cc2nc(N3CCC(Oc4ccc(F)cc4F)CC3)c(-c3cnn(C)c3)nc2cn1` (single isomer, unassigned) [Compound 614], the half-maximal inhibitory concentration (IC50) against GPR3 (procedure of Example 24) is 1000 to 30000 nM; on GPR6 (procedure of Example 24), 100 to 1000 nM.

As to `CCn1cc(-c2nc3cnc(N)cc3nc2N2CCC(Oc3ccc(F)cc3F)CC2)cn1` [Compound 294, 2-[4-(2,4-difluorophenoxy)piperidin-1-yl]-3-(1-ethyl-1H-pyrazol-4-yl)pyrido[3,4-b]pyrazin-7-amine], the IC50 is 1000 to 30000 nM against GPR3 (procedure of Example 24) and under 100 nM at GPR6 (procedure of Example 24). For the compound `CNC(=O)N1CCc2nc(N3CCC(Oc4ccc(F)cc4F)CC3)c(-c3cn[nH]c3)nc2C1` [Compound 180, 2-[4-(2,4-difluorophenoxy)piperidin-1-yl]-N-methyl-3-(1H-pyrazol-4-yl)-5H,6H,7H,8H-pyrido[3,4-b]pyrazine-6-carboxamide], the IC50 against GPR3 (setting [3]) and at GPR6 (setting [4]) was 1000 to 30000 nM each time. As to `COc1ncccc1-c1nc2c(nc1N1CCC(Oc3ccc(F)cc3F)CC1)CCN(C(C)=O)C2` [Compound 112, 1-{2-[4-(2,4-difluorophenoxy)piperidin-1-yl]-3-(2-methoxypyridin-3-yl)-5H,6H,7H,8H-pyrido[3,4-b]pyrazin-6-yl}ethan-1-one], the IC50 against GPR3 (setting [3]) and against GPR6 (setting [4]) was 1000 to 30000 nM each time. Regarding `CC(=O)N1CCc2nc(N3CCN(Cc4ccc(F)cc4F)CC3)c(-c3ccc(F)c(N)n3)nc2C1` [Compound 609, 1-[3-(6-amino-5-fluoro-2-pyridyl)-2-{4-[(2,4-difluorophenyl)methyl]-1-piperazinyl}-5,6,7,8-tetrahydro-1,4,6-triaza-6-naphthyl]-1-ethanone], the IC50 at GPR3 (setting [1]) and at GPR6 (setting [2]) was 100 to 1000 nM each time.

For the compound `CC(=O)N1CCc2nc(N3CCC(C(=O)N(C)c4ccc(F)cc4)C3)c(-c3cnn(C)c3)nc2C1` (stereo not drawn) [Compound 385, 1-[6-acetyl-3-(1-methyl-1H-pyrazol-4-yl)-5H,6H,7H,8H-pyrido[3,4-b]pyrazin-2-yl]-N-(4-fluorophenyl)-N-methylpyrrolidine-3-carboxamide], the IC50 on GPR3 (setting [3]) is 1000 to 30000 nM; on GPR6 (setting [4]), at least 30000 nM. As to `CC(=O)N1CCc2nc(N3CCC(Oc4ccccc4C#N)CC3)c(-c3cnn(C)c3)nc2C1` [Compound 499, o-{1-[6-acetyl-3-(1-methyl-4-pyrazolyl)-5,6,7,8-tetrahydro-1,4,6-triaza-2-naphthyl]-4-piperidyloxy} benzonitrile], the IC50 against GPR3 (setting [1]) is at least 30000 nM; against GPR6 (setting [2]), 100 to 1000 nM. Consider “1-(3-{6-acetyl-2-[4-(2,4- difluorophenoxy)piperidin- 1-yl]-5H,6H,7H,8H- pyrido[3,4-b]pyrazin-3- yl}-4H,5H,6H,7H- pyrazolo[1,5-a]pyrazin-5- yl)ethan-1-one [Compound 106]”, for which the IC50 on GPR3 (setting [3]) and against GPR6 (setting [4]) was 1000 to 30000 nM each time. Take `CC(=O)N1CCc2nc(N3CCC4(CC3)CC4c3ccc(F)cc3F)c(-c3cnn(C)c3)nc2C1` (stereo not drawn) [Compound 660, 1-(2-(1-(2,4-difluorophenyl)-6-azaspiro[2.5]octan-6-yl)-3-(1-methyl-1H-pyrazol-4-yl)-7,8-dihydropyrido[3,4-b]pyrazin-6(5H)-yl)ethan-1-one]: the IC50 on GPR3 (procedure of Example 24) and against GPR6 (procedure of Example 24) was 1000 to 30000 nM throughout.

In the case of `CC(=O)N1CCc2nc(N3CCC(Oc4ccc(F)cc4F)CC3)c(-c3cnn([C@@H](C)C#N)c3)nc2C1` (single isomer, unassigned) [Compound 271], the figures for the IC50 on GPR3 (procedure of Example 24) and at GPR6 (procedure of Example 24) were 1000 to 30000 nM and 100 to 1000 nM, respectively. With `CC(C)(O)C(O)c1cc2nc(-c3cnn(C(F)F)c3)c(N3CCC(Oc4ccc(F)cc4F)CC3)nc2cn1` (single isomer, unassigned) [Compound 583], the IC50 at GPR3 (setting [1]) is 1000 to 30000 nM; on GPR6 (setting [2]), under 100 nM. Consider `CC(=O)N1CCc2nc(N3CCC(Oc4ccc(F)cc4F)CC3)c(-c3cnc4n3CCN(C(C)=O)C4)nc2C1` [Compound 17, 1-(3-(6-acetyl-2-(4-(2,4-difluorophenoxy)piperidin-1-yl)-5,6,7,8-tetrahydropyrido[3,4-b]pyrazin-3-yl)-5,6-dihydroimidazo[1,2-a]pyrazin-7(8H)-yl)ethan-1-one], for which the IC50 on GPR3 (setting [5]) and against GPR6 (setting [5]) was 1000 to 30000 nM in each case. `COc1nc(-c2nc3c(nc2N2CCC(Oc4ccc(F)cc4F)CC2)CCN(C(C)=O)C3)ccc1F` [Compound 83, 1-{2-[4-(2,4-difluorophenoxy)piperidin-1-yl]-3-(5-fluoro-6-methoxypyridin-2-yl)-5H,6H,7H,8H-pyrido[3,4-b]pyrazin-6-yl}ethan-1-one]: on GPR3 (setting [3]), the IC50 lay within 1000 to 30000 nM.
